Data taken from patent publication US9944721B2, “Polysialic acid and use for treatment of neurodegenerative and neuroinflammatory diseases” (RHEINISCHE FRIEDRICH-WILHELMS UNIVERSITÄT BONN, priority 2013, dated 2018).

Legend:
Format in all cases: cell-based
[1] = test system: LPS-activated human microglia; assay: LPS-induced TNF-alpha gene transcription in human microglia (qRT-PCR); conditions: LPS 1 μg/ml, 24 hours; for LPS-induced gene transcription of TNF-alpha: 0.15 μM, 0.5 μM and 1.5 μM, FIG. 3; for Anti-inflammatory effect on TNF-alpha of LPS-activated human microglia: summary of Example 4
Description: To analyse whether polysialic acid might interfere with a pro-inflammatory phenotype of human microglia, cultured human microglia were activated with lipopolysaccharides (LPS) and the effect of the distinct sialic acid forms including fractions of oligosialic and polysialic acid on the gene transcription of the pro-inflammatory cytokine tumor necrosis factor-alpha induced by the bacterial toxin LPS was determined. A human microglial line derived from induced pluripotent stem cells as described in WO 2010/125110 was used to study the effect of sialic acid forms with different chain length. Human microglial cells were cultured on 5 μg/ml poly-L-lysin (PLL, Sigma)-coated dishes in N2-medium containing DMEM/F12 culture medium (Gibco) supplemented with 1% N2 (Invitrogen), 0.48 mM L-glutamine (Gibco) and optionally 100 μg/ml penicillin/streptomycin (Gibco). Cells were cultured with high density and splitted 1:2 when required. The human induced pluripotent stem cell derived microglia line was treated with lipopolysaccharides (LPS, 1 μg/ml, Invivogen) and sialic acid forms with different chain length for 24 hours. Gene transcripts for tumor necrosis factor-α (TNF-alpha) were determined by quantitative RT-PCR and normalized to GAPDH. In detail, RNA isolation was performed using RNeasy Mini Kit (Qiagen) and transcription with the SuperScript First-Strand Synthesis System (Invitrogen). Quantitative RT-PCR with specific oligonucleotides (GAPDH: […] (SEQ ID NO: 1) and […] (SEQ ID NO: 2); TNFα: […] (SEQ ID NO: 3) and […] (SEQ ID NO: 4)) was performed using SYBR green PCR Master Mix with the Mastercycler epgradients S (Eppendorf). Results were normalized to GAPDH. Quantification using the delta-CT method was carried out.

[2] = test system: human microglial line derived from induced pluripotent stem cells (expressing Siglec-11); assay: MTT cell viability of human microglia treated with sialic acid forms; conditions: for metabolic activity of the microglial cells (MTT, normalized to cell number): 24 hours treatment, 0.15 μM, 0.5 μM and 1.5 μM, FIG. 2B; for Intact viability of human microglia: summary of Example 3, MTT, 24 hours
Description: A human microglial line derived from induced pluripotent stem cells as described in WO 2010/125110 was used to study the effect of sialic acid forms with different chain length. Human microglial cells were cultured on 5 μg/ml poly-L-lysin (PLL, Sigma)-coated dishes in N2-medium containing DMEM/F12 culture medium (Gibco) supplemented with 1% N2 (Invitrogen), 0.48 mM L-glutamine (Gibco) and optionally 100 μg/ml penicillin/streptomycin (Gibco). Cells were cultured with high density and splitted 1:2 when required.
The effect of different length and fractions of oligosialic acids and polysialic acids on the human microglial lines were analyzed by determination of cell viability normalized to the cell number and after treatment with monomeric sialic acid (SA, molecular weight of 0.3 kDa, Nacalai Tesque ING, Japan) and sialic acids consisting of 3 monomers (Tri-SA; molecular weight of 0.9 kDa, Nacalai Tesque ING, Japan) and sialic acids consisting of 6 monomers (Hexa-SA; molecular weight of 1.9 kDa, Nacalai Tesque ING, Japan), PSA with a number of sialic acid monomers between 14 and 26 (PSA-20; low molecular weight of PSA between 4.3 and 8 kDa for >90% of the substance) and PSA with a length between 46 and 110 of sialic acid monomers (PSA-60; medium molecular weight of PSA between 14.2 and 34 kDa for >90% of the substance).
The microglial cells were cultured in medium as described above and treated in culture with the different sialic acid forms.
Cell viability was determined by the MTT (3-(4,5-Dimethylthiazol-2-yl)-2,5-diphenyltetrazolium bromide, Millipore) assay after 24 hours treatment with distinct sialic acid forms with different chain length and normalized to the cell number. The light absorbance of the purple formazan in living cells was determined by a spectrophotometer at a wavelength of 570 nm (Perkin Elmer, Envision Multiplate Reader).

human microglial cells = assay: Phagocytosis associated oxidative burst: neural debris triggered superoxide release (DHE); conditions: control experiment; 40 μM Trolox or 20 μg/ml SOD1
Description: To measure the relative production of superoxide by the microglial cells, human microglial cells were plated in 4-chamber culture dishes. After 24 hours cells were treated with 5 mg/ml neural debris for 15 minutes with or without 1 hour PSA-20 pre-incubation at concentrations of 0.15 μM, 0.5 μM or 1.5 μM. Then, cells were washed 2-times with Krebs-HEPES-buffer. To detect the release of superoxide the cells were afterwards incubated for 15 minutes with 30 μM superoxide-sensitive fluorescent dye dihydroethidium (DHE) solution diluted in Krebs-HEPES-buffer. Finally cells were washed 2-times with Krebs-HEPES-buffer and fixed for 15 minutes with 0.25% glutaraldehyde and 4% PFA. In total, six images were randomly collected per experimental group by confocal laser scanning microscopy (Fluoview 1000, Olympus). All cells of the collected images were analyzed by Image J software (NIH).
To confirm the effect, Trolox as scavenger of superoxide and superoxide dismutase-1 (SOD1) as modifier of superoxide were used in a control experiment as described above using 1.5 μM of PSA-20 but adding either 40 μM Trolox or 20 μg/ml (SOD1) into the medium. […] As can be taken from the FIG. 9C, the radical scavenger Trolox and the superoxide dismutase SOD1 neutralized the neural debris triggered superoxide release and as controls confirmed that DHE detected an extracellular production of superoxide.

[3] = test system: human microglial cells stimulated with fibrillary amyloid-β1-42; assay: Amyloid-β1-42 induced superoxide release of human microglia (DHE); conditions: repeat, FIG. 4B; PSA-20 1.5 μM; Trolox 40 μM; SOD1 20 μg/ml; Aβ 10 μM
Description: The human microglial cell line was treated with human Alzheimer's disease associated fibrillary amyloid-beta peptide (Aβ) to mimic inflammatory signalling of Alzheimer's disease brain tissue. To obtain fibrillary components of Aβ, the synthetic amyloid-beta peptide (amyloid-beta 1-42, Bachem/Brucker, 10 μM) was preincubated at 37° C. for at least three days. The human microglial cells were treated with the different concentrations of 0.15 μM, 0.5 μM, or 1.5 μM of low molecular weight polysialic acid (PSA-20) for 60 minutes followed by incubation for 15 minutes with fibrillary Aβ. Then, 30 μM dihydroethidium (DHE) was added and incubated at 37° C. for 15 minutes for measurement of superoxide anion radical production. Cells were fixed with 4% paraformaldehyde plus 0.25% glutaraldehyde and analyzed by confocal microscopy. For the quantification of DHE staining intensity six pictures of each experiment were obtained and analyzed by ImageJ software (NIH). The background was subtracted and the mean values of the staining intensities were compared. Cells were fixed and the intensity of DHE was quantified by confocal microscopy.
To confirm the specificity of the DHE measurement, the determination of the effect of PSA-20 on superoxide production in human microglial cells was repeated. As a control the radical scavenger Trolox, a water-soluble vitamin E analogue, was added to the system. Furthermore, as additional control superoxide dismutase-1 (SOD1) was added into the medium. Superoxide should no longer be detectable by the DHE dye after successful transformation of superoxide by SOD1.
Human microglial cells were cultured alone and production of reactive oxygen species was analyzed after treatment with the Alzheimer's disease plaques associated fibrillary amyloid-β1-42. To measure the relative production of superoxide by the microglial cells, cells were plated in 4-chamber culture dishes. After 24 hours human microglial cells were treated with 1.5 μM of low molecular weight polysialic acid (PSA-20) for 60 minutes followed by incubation for 15 minutes with 10 μM fibrillary amyloid-β1-42. Control dishes were treated with either 1.5 μM PSA-20 and 40 μM Trolox or 1.5 μM PSA-20 and 20 μg/ml superoxide dismutase-1 (SOD1, Serva). Then, cells were washed 2-times with Krebs-HEPES-buffer and afterwards incubated for 15 minutes with 30 μM DHE solution (diluted in Krebs-HEPES-buffer). Finally cells were washed 2-times with Krebs-HEPES-buffer and fixed for 15 minutes with 0.25% glutaraldehyde and 4% PFA. In total, six images were randomly collected per experimental group by confocal laser scanning microscopy (Fluoview 1000, Olympus). All cells of the collected images were analyzed by Image J software (NIH).

Row | Molecule | LPS-induced gene transcription of TNF-alpha [1] | Anti-inflammatory effect on TNF-alpha of LPS-activated human microglia [1] | metabolic activity of the microglial cells (MTT, normalized to cell number) [2] | Intact viability of human microglia [2] | neural debris triggered superoxide release (human microglial cells) | amyloid-β1-42 induced stimulation of the superoxide production [3]
1 | CC(=O)N[C@H]1[C@H]([C@H](O)[C@H](O)CO)OC(O)(C(=O)O)C[C@@H]1O (stereo partly drawn) [SA, N-acetylneuraminic acid] | did not significantly change | No | did not affect the metabolic activity | Yes |  | 
2 | Cc1c(C)c2c(c(C)c1O)CCC(C)(C(=O)O)O2 (stereo not drawn) [Trolox, 6-hydroxy-2,5,7,8-tetramethylchroman-2-carboxylic acid, reference compound] |  |  |  |  | neutralized | scavenged
3 | SOD1: superoxide dismutase-1 (Serva), added to the medium as a control |  |  |  |  | neutralized | neutralized
4 | α2.8-polysialic acid [PSA-180] | no significant anti-inflammatory effect | No | significantly reduced | No |  | 
